Laboratory results from patent EP2857388A1, “Azoles containing sulfone” (Grünenthal GmbH, priority 2013, dated 2015).

Biological target: T1, human B1R (Homo sapiens, UniProt P46663)
T1 construct: expressed in transfected cells; host or cells: CHO K1 cells (Chinese Hamster Ovary), stably transfected
T1 sequence (P46663 1-353): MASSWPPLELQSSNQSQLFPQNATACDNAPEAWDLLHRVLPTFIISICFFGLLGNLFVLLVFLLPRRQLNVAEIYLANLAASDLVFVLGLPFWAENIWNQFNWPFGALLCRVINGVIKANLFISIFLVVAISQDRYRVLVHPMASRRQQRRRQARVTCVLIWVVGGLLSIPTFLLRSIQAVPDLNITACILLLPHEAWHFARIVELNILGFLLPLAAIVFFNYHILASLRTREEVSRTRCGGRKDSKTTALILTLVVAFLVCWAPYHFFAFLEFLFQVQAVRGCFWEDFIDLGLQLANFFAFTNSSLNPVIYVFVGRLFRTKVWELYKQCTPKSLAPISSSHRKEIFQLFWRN
Assay: Functional assay at bradykinin receptor 1 (B1R): Ca2+ fluorescence (Fluo-4) in FLIPR/Novostar, antagonist mode
Format: cell-based
Settings: test substance 10 µM; CHO K1 cells stably transfected with human B1R gene (hB1R-Zellen); agonist Lys-Des-Arg9-Bradykinin at EC80; % inhibition relative to maximal achievable inhibition; read-out: % Inhibierung (human B1R) bei 10 µM
Method in brief: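 Antagonism read as suppression of the Ca2+ rise in Fluo-4-loaded, hB1R-transfected CHO K1 cells when Lys-Des-Arg9-bradykinin (EC80) follows a 6–20 min compound preincubation. Maximal fluorescence counts, measured on FLIPR or Novostar, yield % inhibition relative to maximum; IC50 values come from concentration series run in duplicate or triplicate.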

Compound | inhibition at 10 µM [%]
COc1cc(C)c(S(=O)(=O)Cc2cc(C)n(CC(=O)NC3CCC(N4CCCC4)CC3(C)C)n2)c(C)c1 (stereo not drawn) [CC-155, N-(2,2-Dimethyl-4-pyrrolidin-1-yl-cyclohexyl)-2-[3-[[(4-methoxy-2,6-dimethyl-phenyl)sulfonyl]-methyl]-5-methyl-1 H-pyrazol-1-yl]-acetamid] | 98
COc1cc(C)c(S(=O)(=O)Cc2cc(C)n(CC(=O)NC3CCC(N4CCCC4)CC3)n2)c(C)c1 (stereo not drawn) [CC-156, 2-[3-[[(4-Methoxy-2,6-dimethyl-phenyl)sulfonyl]-methyl]-5-methyl-1H-pyrazol-1-yl]-N-(4-pyrrolidin-1-yl-cyclohexyl)-acetamid] | 98
COCCN1CCC(NC(=O)Cn2nc(CS(=O)(=O)c3c(C)cc(OC)cc3C)cc2C)C(C)(C)C1 (stereo not drawn) [CC-157, 2-[3-[[(4-Methoxy-2,6-dimethyl-phenyl)sulfonyl]-methyl]-5-methyl-1H-pyrazol-1-yl]-N-[1-(2-methoxy-ethyl)-3,3-dimethyl-piperidin-4-yl]-acetamid] | 61
COc1cc(C)c(S(=O)(=O)Cc2cn(CC(=O)NC3CCC(N4CCCC4)CC3(C)C)nn2)c(C)c1 (stereo not drawn) [CC-158, N-(2,2-Dimethyl-4-pyrrolidin-1-yl-cyclohexyl)-2-[4-[[(4-methoxy-2,6-dimethyl-phenyl)sulfonyl]-methyl]-1H-[1,2,3]triazol-1-yl]-acetamid] | 100
COc1cc(C)c(S(=O)(=O)Cc2cc(C)n(CC(=O)NC3CCN(C(C)=O)CC3(C)C)n2)c(C)c1 (stereo not drawn) [CC-159, N-(1-Acetyl-3,3-dimethyl-piperidin-4-yl)-2-[3-[[(4-methoxy-2,6-dimethyl-phenyl)sulfonyl]-methyl]-5-methyl-1 H-pyrazol-1-yl]-acetamid] | 50
COCCN1CCC(NC(=O)Cn2cc(CS(=O)(=O)c3c(C)cc(OC)cc3C)nn2)C(C)(C)C1 (stereo not drawn) [CC-160, 2-[4-[[(4-Methoxy-2,6-dimethyl-phenyl)sulfonyl]-methyl]-1H-[1,2,3]triazol-1-yl]-N-[1-(2-methoxy-ethyl)-3,3-dimethyl-piperidin-4-yl]-acetamid] | 100
COc1cc(C)c(S(=O)(=O)Cc2cn(CC(=O)NC3CCN(C(C)=O)CC3(C)C)nn2)c(C)c1 (stereo not drawn) [CC-161, N-(1-Acetyl-3,3-dimethyl-piperidin-4-yl)-2-[4-[[(4-methoxy-2,6-dimethyl-phenyl)sulfonyl]-methyl]-1H-[1,2,3]triazol-1-yl]-acetamid] | 92
COc1cc(C)c(S(=O)(=O)Cc2cn(CC(=O)NC3CCC(N4CCN(C)CC4)CC3(C)C)nn2)c(C)c1 (stereo not drawn) [CC-162, N-[2,2-Dimethyl-4-(4-methyl-piperazin-1-yl)-cyclohexyl]-2-[4-[[(4-methoxy-2,6-dimethylphenyl)sulfonyl]-methyl]-1H-[1,2,3]triazol-1-yl]-acetamid] | 100
COc1cc(C)c(S(=O)(=O)Cc2cc(C)n(CC(=O)NC3CCC(N4CCN(C)CC4)CC3(C)C)n2)c(C)c1 (stereo not drawn) [CC-163, N-[2,2-Dimethyl-4-(4-methyl-piperazin-1-yl)-cyclohexyl]-2-[3-[[(4-methoxy-2,6-dimethyl-phenyl)sulfonyl]-methyl]-5-methyl-1H-pyrazol-1-yl]-acetamid] | 99
COc1cc(C)c(S(=O)(=O)Cc2c(C)nn(CC(=O)NC3CCC(N4CCCC4)CC3)c2C)c(C)c1 (stereo not drawn) [CC-164, 2-[4-[[(4-Methoxy-2,6-dimethyl-phenyl)sulfonyl]-methyl]-3,5-dimethyl-1H-pyrazol-1-yl]-N-(4-pyrrolidin-1-yl-cyclohexyl)-acetamid] | 100
COCCN1CCC(NC(=O)Cn2nc(C)c(CS(=O)(=O)c3c(C)cc(OC)cc3C)c2C)C(C)(C)C1 (stereo not drawn) [CC-165, 2-[4-[[(4-Methoxy-2,6-dimethyl-phenyl)sulfonyl]-methyl]-3,5-dimethyl-1H-pyrazol-1-yl]-N-[1-(2-methoxy-ethyl)-3,3-dimethyl-piperidin-4-yl]-acetamid] | 100
COc1cc(C)c(S(=O)(=O)Cc2c(C)nn(CC(=O)NC3CCC(N4CCN(C)CC4)CC3(C)C)c2C)c(C)c1 (stereo not drawn) [CC-166, N-[2,2-D imethyl-4-(4-methyl-piperazin-1-yl)-cyclohexyl]-2-[4-[[(4-methoxy-2,6-dimethyl-phenyl)sulfonyl]-methyl]-3,5-dimethyl-1 H-pyrazol-1-yl]-acetamid] | 100
COc1cc(C)c(S(=O)(=O)Cc2cn(CC(=O)NC3CCC(N4CCCC4)CC3)nn2)c(C)c1 (stereo not drawn) [CC-167, 2-[4-[[(4-Methoxy-2,6-dimethyl-phenyl)sulfonyl]-methyl]-1H-[1,2,3]triazol-1-yl]-N-(4-pyrrolidin-1-yl-cyclohexyl)-acetamid] | 100
COc1cc(C)c(S(=O)(=O)Cc2c(C)nn(CC(=O)NC3CCC(N(C)C)CC3)c2C)c(C)c1 (stereo not drawn) [CC-168, N-(4-Dimethylamino-cyclohexyl)-2-[4-[[(4-methoxy-2,6-dimethyl-phenyl)sulfonyl]-methyl]-3,5-dimethyl-1 H-pyrazol-1-yl]-acetamid] | 100
COc1cc(C)c(S(=O)(=O)Cc2cn(CC(=O)NC3CCC(N(C)C)CC3)nn2)c(C)c1 (stereo not drawn) [CC-169, N-(4-Dimethylamino-cyclohexyl)-2-[4-[[(4-methoxy-2,6-dimethyl-phenyl)sulfonyl]-methyl]-1H-[1,2,3]triazol-1-yl]-acetamid] | 100
COc1cc(C)c(S(=O)(=O)Cc2c(C)nn(CC(=O)NC3CCC(N4CCCC4)CC3(C)C)c2C)c(C)c1 (stereo not drawn) [CC-170, N-(2,2-Dimethyl-4-pyrrolidin-1-yl-cyclohexyl)-2-[4-[[(4-methoxy-2,6-dimethyl-phenyl)sulfonyl]-methyl]-3,5-dimethyl-1H-pyrazol-1-yl]-acetamid] | 99
COc1cc(C)c(S(=O)(=O)Cc2cc(C)n(CC(=O)NC3CCNCC3(C)C)n2)c(C)c1 (stereo not drawn) [CC-171, N-(3,3-Dimethyl-piperidin-4-yl)-2-[3-[[(4-methoxy-2,6-dimethyl-phenyl)sulfonyl]-methyl]-5-methyl-1 H-pyrazol-1-yl]-acetamid] | 71
COc1cc(C)c(S(=O)(=O)Cc2c(C)nn(CC(=O)NC3CCC(c4ccncc4)CC3(C)C)c2C)c(C)c1 (stereo not drawn) [CC-172, N-(2,2-Dimethyl-4-pyridin-4-yl-cyclohexyl)-2-[4-[[(4-methoxy-2,6-dimethyl-phenyl)sulfonyl]-methyl]-3,5-dimethyl-1 H-pyrazol-1-yl]-acetamid] | 100
COc1cc(C)c(S(=O)(=O)Cc2c(C)nn(CC(=O)NC3CCNCC3)c2C)c(C)c1 [CC-173, 2-[4-[[(4-Methoxy-2,6-dimethyl-phenyl)sulfonyl]-methyl]-3,5-dimethyl-1H-pyrazol-1-yl]-N-piperidin-4-yl-acetamid] | 85
COc1cc(C)c(S(=O)(=O)Cc2c(C)nn(CC(=O)NC3CCC(NC4CC4)CC3(C)C)c2C)c(C)c1 (stereo not drawn) [CC-174, N-[4-(Cyclopropylamino)-2,2-dimethyl-cyclohexyl]-2-[4-([(4-methoxy-2,6-dimethyl-phenyl)sulfonyl]-methyl]-3,5-dimethyl-1 H-pyrazol-1-yl]-acetamid] | 100
COc1cc(C)c(S(=O)(=O)Cc2cn(CC(=O)NC3CCC(NC4CC4)CC3(C)C)nn2)c(C)c1 (stereo not drawn) [CC-175, N-[4-(Cyclopropylamino)-2,2-dimethyl-cyclohexyl]-2-[4-[[(4-methoxy-2,6-dimethyl-phenyl)sulfonyl]-methyl]-1 H-[1,2,3]triazol-1-yl]-acetamid] | 100
COc1cc(C)c(S(=O)(=O)Cc2cn(CC(=O)NC3CCNCC3(C)C)nn2)c(C)c1 (stereo not drawn) [CC-176, N-(3,3-Dimethyl-piperidin-4-yl)-2-[4-[[(4-methoxy-2,6-dimethyl-phenyl)sulfonyl]-methyl]-1 H-[1,2,3]triazol-1-yl]-acetamid] | 100
COc1cc(C)c(S(=O)(=O)Cc2cc(C)n(CC(=O)NC3CCC(NC4CC4)CC3(C)C)n2)c(C)c1 (stereo not drawn) [CC-177, N-[4-(Cyclopropylamino)-2,2-dimethyl-cyclohexyl]-2-[3-[[(4-methoxy-2,6-dimethyl-phenyl)sulfonyl]-methyl]-5-methyl-1 H-pyrazol-1-yl]-acetamid] | 99
COc1cc(C)c(S(=O)(=O)Cc2cn(CC(=O)NC3CCC(c4ccncc4)CC3(C)C)nn2)c(C)c1 (stereo not drawn) [CC-178, N-(2,2-Dimethyl-4-pyridin-4-yl-cyclohexyl)-2-[4-[[(4-methoxy-2,6-dimethyl-phenyl)sulfonyl]-methyl]-1 H-[1,2,3]triazol-1-yl]-acetamid] | 100
COc1cc(C)c(S(=O)(=O)Cc2c(C)nn(CC(=O)NC3CCN(C(C)=O)CC3(C)C)c2C)c(C)c1 (stereo not drawn) [CC-179, N-(1-Acetyl-3,3-dimethyl-piperidin-4-yl)-2-[4-[[(4-methoxy-2,6-dimethyl-phenyl)sulfonyl]-methyl]-3,5-dimethyl-1 H-pyrazol-1-yl]-acetamid] | 44
COc1cc(C)c(S(=O)(=O)Cc2c(C)nn(CC(=O)NC3CCNCC3(C)C)c2C)c(C)c1 (stereo not drawn) [CC-180, N-(3,3-Dimethyl-piperidin-4-yl)-2-[4-[[(4-methoxy-2,6-dimethyl-phenyl)sulfonyl]-methyl]-3,5-dimethyl-1 H-pyrazol-1-yl]-acetamid] | 98
COc1cc(C)c(S(=O)(=O)Cc2cn(CC(=O)N(C)C3CCNCC3(C)C)nn2)c(C)c1 (stereo not drawn) [CC-181, N-(3,3-Dimethyl-piperidin-4-yl)-2-[4-[[(4-methoxy-2,6-dimethyl-phenyl)sulfonyl]-methyl]-1 H-[1,2,3]-triazol-1-yl]-N-methyl-acetamid] | 99
